Common to all, as to assay type: biochemical
One test addresses T1, MMP-1 (Homo sapiens, UniProt P03956).
T1 sequence (P03956 100-469): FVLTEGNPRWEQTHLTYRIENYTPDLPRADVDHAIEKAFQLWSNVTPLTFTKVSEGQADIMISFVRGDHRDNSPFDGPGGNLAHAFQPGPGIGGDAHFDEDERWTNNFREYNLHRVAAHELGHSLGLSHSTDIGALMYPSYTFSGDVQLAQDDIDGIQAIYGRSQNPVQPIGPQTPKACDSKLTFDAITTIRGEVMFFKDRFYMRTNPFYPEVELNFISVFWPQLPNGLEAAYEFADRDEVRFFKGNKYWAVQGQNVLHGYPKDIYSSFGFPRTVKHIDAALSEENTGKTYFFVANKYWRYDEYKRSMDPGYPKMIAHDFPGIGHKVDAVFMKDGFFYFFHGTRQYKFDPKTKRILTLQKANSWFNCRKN
Put plainly: MMP-1 inhibition (thiopeptide or fluorescent peptide substrate assay). The following applies: for inhibition at 1 µM: read-out: MMP-1 % inhibition, concentration 1 µM. Here is the method:
(§1) These assays are based on the cleavage of a thiopeptide substrates such as Ac-Pro-Leu-Gly(2mercapto-4 methyl-pentanoyl)-Leu-Gly-OEt by the matrix metalloproteinases MMP-1, MMP-13 (collagenases) or MMP-9 (gelatinase), which results in the release of a substrate product that reacts colorimetrically with DTNB (5,5'-dithiobis(2-nitro-benzoic acid)). The enzyme activity is measured by the rate of the color increase. The thiopeptide substrate is made up fresh as a 20 mM stock in 100% DMSO and the DTNB is dissolved in 100% DMSO as a 100 mM stock and stored in the dark at room temperature. Both the substrate and DTNB are diluted together to 1 mM with substrate buffer (50 mM HEPES pH 7.5, 5 mM CaCl2) before use. The stock of enzyme is diluted with assay buffer (50 mM HEPES, pH 7.5, 5 mM CaCl2, 0.02% Brij) to the desired final concentration.
(§2) Alternatively, a fluorescent peptide substrate is used. In this assay, the peptide substrate contains a fluorescent group and a quenching group. Upon cleavage of the substrate by an MMP, the fluorescence that is generated is quantitated on the fluorescence plate reader. The assay is run in HCBC assay buffer (50mM HEPES, pH 7.0, 5 mM Ca^+2, 0.02% Brij, 0.5% Cysteine), with human recombinant MMP-1, MMP-9, or MMP-13. The substrate is dissolved in methanol and stored frozen in 1 mM aliquots. For the assay, substrate and enzymes are diluted in HCBC buffer to the desired concentrations. Compounds are added to the 96 well plate containing enzyme and the reaction is started by the addition of substrate. The reaction is read (excitation 340 nm, emission 444 nm) for 10 min. and the increase in fluorescence over time is plotted as a linear line.
(§3) For either the thiopeptide or fluorescent peptide assays, the slope of the line is calculated and represents the reaction rate. The linearity of the reaction rate is confirmed (r^2 >0.85). The mean (x±sem) of the control rate is calculated and compared for statistical significance (p<0.05) with drug-treated rates using Dunnett's multiple comparison test.

In another test the target is MMP-9 (Homo sapiens, UniProt P14780). Put plainly: MMP-9 inhibition (thiopeptide or fluorescent peptide substrate assay). The conditions noted are these: for inhibition at 10 µM: concentration 10 µM. Here is the method:
as §1, §2, §3

In a further test the target is MMP-13 (Homo sapiens, UniProt P45452). Put plainly: MMP-13 inhibition (thiopeptide or fluorescent peptide substrate assay).
The target in a further test is T2, TACE (Homo sapiens, UniProt P78536).
T2 construct: purchased Immunex
Put plainly: TACE inhibition (fluorescent peptidyl substrate assay).

MMP-9, sequence (P14780 94-707): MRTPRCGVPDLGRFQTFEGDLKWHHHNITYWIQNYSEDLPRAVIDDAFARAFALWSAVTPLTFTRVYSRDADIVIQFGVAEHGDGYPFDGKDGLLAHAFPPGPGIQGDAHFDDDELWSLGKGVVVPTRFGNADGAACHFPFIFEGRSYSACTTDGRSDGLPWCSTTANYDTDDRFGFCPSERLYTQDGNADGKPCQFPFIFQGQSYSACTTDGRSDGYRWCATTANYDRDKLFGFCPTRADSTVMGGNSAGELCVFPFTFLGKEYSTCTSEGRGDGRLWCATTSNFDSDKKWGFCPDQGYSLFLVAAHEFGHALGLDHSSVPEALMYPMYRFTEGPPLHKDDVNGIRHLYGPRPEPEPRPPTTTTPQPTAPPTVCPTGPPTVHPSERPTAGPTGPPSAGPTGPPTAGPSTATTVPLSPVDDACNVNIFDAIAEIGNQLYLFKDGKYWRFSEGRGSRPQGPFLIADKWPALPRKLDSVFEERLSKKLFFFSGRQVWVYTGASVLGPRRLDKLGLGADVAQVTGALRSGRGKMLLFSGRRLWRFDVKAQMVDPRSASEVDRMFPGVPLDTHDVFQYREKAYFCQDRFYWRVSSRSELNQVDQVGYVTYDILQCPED
T2 sequence (P78536 215-824): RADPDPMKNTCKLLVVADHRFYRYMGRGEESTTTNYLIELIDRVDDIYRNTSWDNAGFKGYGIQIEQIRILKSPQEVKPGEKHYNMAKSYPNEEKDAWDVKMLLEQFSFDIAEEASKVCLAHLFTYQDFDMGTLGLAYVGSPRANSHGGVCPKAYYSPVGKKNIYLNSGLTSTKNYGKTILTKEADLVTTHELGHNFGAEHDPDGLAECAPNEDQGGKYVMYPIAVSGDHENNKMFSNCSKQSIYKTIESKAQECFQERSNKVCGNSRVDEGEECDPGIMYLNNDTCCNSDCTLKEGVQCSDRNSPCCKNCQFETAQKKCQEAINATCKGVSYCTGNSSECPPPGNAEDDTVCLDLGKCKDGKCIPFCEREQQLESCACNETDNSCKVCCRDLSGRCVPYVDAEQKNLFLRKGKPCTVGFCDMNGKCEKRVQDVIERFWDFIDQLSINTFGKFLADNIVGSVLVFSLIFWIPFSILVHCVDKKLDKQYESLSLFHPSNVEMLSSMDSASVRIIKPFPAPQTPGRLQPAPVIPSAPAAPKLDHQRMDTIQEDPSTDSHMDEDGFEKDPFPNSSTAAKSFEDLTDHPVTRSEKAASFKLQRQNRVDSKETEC
Description for MMP-13: Alternatively, a fluorescent peptide substrate is used. In this assay, the peptide substrate contains a fluorescent group and a quenching group. Upon cleavage of the substrate by an MMP, the fluorescence that is generated is quantitated on the fluorescence plate reader. […] The substrate is dissolved in methanol and stored frozen in 1 mM aliquots. For the assay, substrate and enzymes are diluted in HCBC buffer to the desired concentrations. Compounds are added to the 96 well plate containing enzyme and the reaction is started by the addition of substrate.
Description for TACE: Using 96-well black microtiter plates, each well receives a solution composed of 10 µL TACE (Immunex, final concentration 1µg/mL), 70µL Tris buffer, pH 7.4 containing 10% glycerol (final concentration 10 mM), and 10 µL of test compound solution in DMSO (final concentration 1µM, DMSO concentration <1%) and incubated for 10 minutes at room temperature.
The reaction is read (excitation 340 nm, emission 420 nm) for 10 min. and the increase in fluorescence over time is plotted as a linear line. The slope of the line is calculated and represents the reaction rate.

For `COc1ccc(S(=O)(=O)N(Cc2ccccc2)c2ccsc2C(=O)NO)cc1` [Example 13, 3-[Benzyl-(4-methoxy-benzenesulfonyl)-amino]-thiophene-2-carboxylic acid hydroxyamide], on MMP-1, the inhibition at 1 µM was 19.3%. Moreover, at MMP-9 (read-out: MMP-9 % inhibition), the inhibition at 10 µM was 57.3%.

On to `COc1ccc(S(=O)(=O)N(Cc2ccccc2)c2cscc2C(=O)NO)cc1` [Example 14, 4-[Benzyl-(4-methoxy-benzenesulfonyl)-amino]-thiophene-3-carboxylic acid hydroxyamide], for which, on MMP-1, the inhibition at 1 µM amounted to 40%. Besides, the inhibition at 10 µM on MMP-9 (read-out: MMP-9 % inhibition) was 66.8%.

With `COc1ccc(S(=O)(=O)N(Cc2ccccc2)c2c(C(=O)NO)cnn2C)cc1` [Example 15, 5-[Benzyl-(4-methoxy-benzenesulfonyl)-amino]-1-methyl-1H-pyrazole-4-carboxylic acid hydroxyamide], on MMP-1, the inhibition at 1 µM came to 22.1%. At MMP-9, this molecule yielded an IC50 of 930 nM.

For the molecule `COc1ccc(S(=O)(=O)N(Cc2ccccc2)c2c(C)csc2C(=O)NO)cc1` [Example 16, 3-[Benzyl-(4-methoxy-benzenesulfonyl)-amino]-4-methyl-thiophene-2-carboxylic acid hydroxyamide], the IC50 against MMP-9 was determined as 104 nM.

With `COc1ccc(S(=O)(=O)N(Cc2ccccc2)c2c(C(=O)NO)csc2Br)cc1` [Example 20, 4-[Benzyl-(4-methoxy-benzenesulfonyl)-amino]-5-bromo-thiophene-3-carboxylic acid hydroxyamide], the IC50 on MMP-13 is 472 nM; against MMP-1, 638 nM; on MMP-9 it was 236 nM.

As for `C#Cc1scc(C(=O)NO)c1N(Cc1ccccc1)S(=O)(=O)c1ccc(OC)cc1` [Example 23, 4-[Benzyl-(4-methoxy-benzenesulfonyl)-amino]-5-ethynyl-thiophene-3-carboxylic acid hydroxyamide], the inhibition at 300 µM on MMP-13 (read-out: MMP-13 % inhibition) is 35%; on MMP-9 (read-out: MMP-9 % inhibition, concentration 300 µM) it was 38.4%. For the same molecule, the inhibition at 1 µM at MMP-1 amounted to 48.9%.

As for `COc1ccc(S(=O)(=O)N(Cc2cccnc2)c2c(C(=O)NO)csc2Br)cc1` [Example 26, 5-Bromo-4-[(4-methoxy-benzenesulfonyl)-pyridin-3-ylmethyl-amino]-thiophene-3-carboxylic acid hydroxyamide], the IC50 was 1000 nM at MMP-1 and 70 nM against MMP-9. The molecule further registered an inhibition at 1 µM against TACE (concentration 1 µM) of 42%.

For `COc1ccc(S(=O)(=O)N(Cc2ccccc2)c2c(C(=O)NO)cc(OC)nc2OC)cc1` [Example 33, 3-[Benzyl-(4-methoxy-benzenesulfonyl)-amino]-N-hydroxy-2,6-dimethoxyisonicotinamide], the IC50 against MMP-13 turned out to be 47 nM; on MMP-9 it was 15 nM; against TACE, 294 nM.

Source of the values: EP0934300B1, “THE PREPARATION AND USE OF ORTHO-S[…] AS MATRIX METALLOPROTEINASE AND TACE INHIBITORS” (American Cyanamid Company, priority 1996, dated 1998).
